One substance from US20220112225A1, “ANANDAMIDE COMPOUNDS” (priority 2019, published 2022) can be followed below.

In data set [1] the target is T1, hMfsd2a (Homo sapiens, UniProt Q8NA29).
T1 construct: expressed in transfected cells; host or cells: HEK293
T1 sequence (Q8NA29 1-530 isoform Q8NA29-2): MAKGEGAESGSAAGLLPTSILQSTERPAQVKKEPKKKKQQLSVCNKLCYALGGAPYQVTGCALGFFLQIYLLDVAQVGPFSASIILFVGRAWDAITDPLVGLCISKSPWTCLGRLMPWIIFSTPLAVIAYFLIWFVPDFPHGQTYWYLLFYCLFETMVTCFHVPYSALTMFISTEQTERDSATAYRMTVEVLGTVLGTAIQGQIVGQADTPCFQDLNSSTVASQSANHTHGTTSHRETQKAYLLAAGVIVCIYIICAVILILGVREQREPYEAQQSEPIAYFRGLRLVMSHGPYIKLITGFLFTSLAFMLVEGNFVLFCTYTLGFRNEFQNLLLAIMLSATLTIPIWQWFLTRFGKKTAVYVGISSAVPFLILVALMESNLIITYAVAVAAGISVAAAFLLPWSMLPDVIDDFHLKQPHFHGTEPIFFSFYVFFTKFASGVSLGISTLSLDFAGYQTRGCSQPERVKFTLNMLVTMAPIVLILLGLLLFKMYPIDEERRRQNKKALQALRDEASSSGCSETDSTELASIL
The data set can be described thus: In vitro Mfsd2a transport, thin layer chromatography (TLC) analysis. It counts as cell-based. The conditions noted are these: transfected HEK293 cells, 50 μM test compound, 1 hour, iodine and cupric acetate stain. On the procedure:
The assay was conducted in a low throughput 6-well format with HEK293 cells prepared and then transfected in duplicate wells with plasmids containing either the wildtype (WT) version of hMfsd2a, the D97A mutant version, or an empty vector as control. Uptake into the ceils was assessed by both thin-layer chromatography (TLC) and ultrahigh performance liquid chromatography hyphenated mass spectrometry.
HEK293 cells were seeded at 6.25×10^5 per 6-well in 2 mL of DMEM with 10% FBS and 1% penicillin-streptomycin (P/S) media (Sigma) and incubated overnight at 37° C. in 5% CO2. Cells were checked for confluency the next morning. On a per well basis the following lipid mix was generated, 6 μL of Lipofectamine 2000 was added dropwise to 200 μL of OptiMEM, this was left to stand for 5 minutes at room temperature (RT). 1 μg of hMfsd2a WT, D97A or empty plasmid was prepared in 200 μL of OptiMEM as appropriate for each well; the Lipofectamine 2000 in OptiMEM solution was then added dropwise to a total volume of 400 μL (this can be scaled to support the number of wells/plates to be assayed). This transfection preparation was then incubated at RT for 20 minutes. DMEM with 10% FBS and no P/S media was warmed to 37° C., the HEK293 plate media was changed and the cells washed carefully with 1 mL of the warmed DMEM with 10% FBS no P/S media, 1.6 mL of the warmed DMEM with 10% FBS no P/S media was then added to each well. 400 μL of the transfection preparation was then added dropwise to each well as appropriate and the plate was gently swirled in a circular motion. The plate was then incubated overnight at 37° C. in 5% CO2.
Compound Incubation and Preparation of Analysis Samples Compound stock solutions were prepared in a 12% BSA in PBS solution such that a 40 μL spike into 2 ml, of plain DMEM would yield a concentration of 50 μM of test compound (the compound treated media). Remaining compound stock solution in 12% BSA in PBS was frozen at −20° C. to allow for media stability testing. The HEK293 6-well plate was removed from the incubator and the wells gently rinsed with 1 mL of plain DMEM that had been prewarmed to 37° C. 2 mL of the compound treated media was then added to each well. A 100 μL sample of the compound treated media was sampled to represent a T=0 h sample; 5 μL of this sample (the remainder was reserved and frozen in case of re-analysis being required) was diluted with 45 μL of DMEM and crashed with 50 μL MeCN in a 96-well plate which was sealed and kept on ice. The HEK293 6-well plate was then incubated at 37° C. in 5% CO2 for 1 hour, the plate was then removed from the incubator and a 100 μL sample of media taken from each well to represent a T=1 h sample; 5 μL of this sample (the remainder was reserved and frozen in case of re-analysis being required) was diluted with 45 μL of DMEM and crashed with 50 μL MeCN into the 96-well plate which was re-sealed and stored at −20° C. The remaining media was then removed from the HEK293 6-well plate, the wells were gently rinsed twice with 1 mL of 0.5% BSA in DMEM, the media was then removed and the 6-well plate allowed to dry completely at RT. 1 ml of 3:2 Hexane:Isopropanol (HIP) was added to each well in a fume cupboard and the plate allowed to stand for 30 minutes at RT without shaking. The HIP solution was then transferred to 2 mL Eppendorf tubes, and the process was repeated with a second 1 mL aliquot of HIP and the two aliquots combined. The HIP samples were then dried down under a nitrogen stream.
Silica gel plates were prepared in a fume cupboard by initially drawing a line 1.5 cm from the bottom edge of the plate and then drawing sample lanes with a width of 1 cm and a separation of 0.5 cm between lanes. TLC buffer for phospholipids was prepared as a 31:62:7 solvent mix of Methanol:Chloroform:Ammonium Hydroxide. Plates were pre-run in a humid chamber containing 200 mL of the TLC buffer until the solvent front was 1.5 cm from the plate edge, the plate was then allowed to dry. […]

A short description of data set [2]: In vitro brain homogenate stability, mouse. The data set is classed as in vitro ADME. The protocol: Fresh rodents brains were snap frozen immediately after collection and the assay performed on the same day. Brains were pre-incubated at 37° C. before being spiked with test compound at 1 μM. Samples were collected across 6 time points (0, 10, 20, 30, 45 and 60 minutes) and crashed in cold acetonitrile containing an internal standard (Leucine Enkephalin) and kept on ice until all samples had been collected. The samples were then shaken and centrifuged. 100 μL of supernatant was transferred to a plate containing 50 μL of MilliQ water and mixed. These plates were analyzed by LC-MS/MS over the 6 time points, where the percentage of test compound remaining was calculated using the peak area of the initial timepoint (T=0 minutes) as 100%. The natural log of the percentage remaining was then calculated. The natural log of the percentage remaining versus time (minutes) was plotted on a graph and the gradient of this graph was used to calculate the elimination rate constant (K), The half-life (t1/2) of test compound was calculated using the natural log of 2 divided by the elimination rate constant. The percentage of Compound 2 formed is reported below in Tables 4-6. FIGS. 9A-9F show results of the brain homogenate stability conducted with representative compounds of the Examples.

On to “2-(5Z,8Z,11Z,14Z)-icosa-5,8,11,14-tetraenamidoethyl (trimethylammonio) ethylphosphate [Compound 3]”, for which, in data set [1], the “Transport via Mfsd2a: TLC band intensity in WT cells compared with D97A mutant Mfsd2a and/or empty vector cells” value was “transported via Mfsd2a”. The “Mouse t1/2” value in data set [2] (37° C., test compound at 1 μM) was determined as 1.67 h. The “Clearance in brain homogenate stability study (in words)” value in data set [2] (one hour incubation, increasing formation of Compound 2) is “demonstrated a level of clearance”.
